Eight substances from ChEMBL document CHEMBL4002571, “Novel designed VmCT1 analogs with increased antimicrobial activity” (Eur J Med Chem, 2017) can be followed below.

Data set [1] has as its system Enterobacter cloacae. The data set is described as follows: Antibacterial activity against Enterobacter cloacae beta-12 after 18 hrs by liquid growth inhibition assay. It counts as functional. As to conditions: beta-12, 18 h, read-out: MIC100.
In data set [2] the test system is Staphylococcus aureus. Briefly: Antibacterial activity against Staphylococcus aureus ATCC 29213 after 18 hrs by liquid growth inhibition assay. The class given is functional. As to conditions: ATCC 29213, 18 h, read-out: MIC100.
Another data set concerns Micrococcus luteus. The data set is described as follows: Antibacterial activity against Micrococcus luteus A270 after 18 hrs by liquid growth inhibition assay. It counts as functional. The note with it: A270, 18 h, read-out: MIC100.
For the next data set, the system named is Erythrocyte. Briefly: Hemolytic activity in human erythrocytes after 1 hr. The class given is ADME, cell-based.
In data set [3] the test system is Staphylococcus epidermidis. The data set is described as follows: Antibacterial activity against Staphylococcus epidermidis ATCC 12228 after 18 hrs by liquid growth inhibition assay. The class given is functional. As to conditions: ATCC 12228, 18 h, read-out: MIC100.
The test system of the next data set is Cryptococcus neoformans. Briefly: Antifungal activity against Cryptococcus neoformans after 18 hrs by liquid growth inhibition assay. It counts as functional. As to conditions: read-out: MIC100.
Data set [4] concerns Escherichia coli. Briefly: Antibacterial activity against Escherichia coli D31 after 18 hrs by liquid growth inhibition assay. The note with it: D31, 18 h, read-out: MIC100. The class given is functional.
For data set [5], the system named is Pseudomonas aeruginosa. Briefly: Antibacterial activity against Pseudomonas aeruginosa ATCC 27853 after 18 hrs by liquid growth inhibition assay. The note with it: ATCC 27853, 18 h, read-out: MIC100. The class given is functional.
The subject of data set [6] is Bacillus spizizenii. Briefly: Antibacterial activity against Bacillus subtilis ATCC 6633 after 18 hrs by liquid growth inhibition assay. The class given is functional. The note with it: ATCC 6633, 18 h, read-out: MIC100.
In data set [7] the test system is Cladosporium herbarum. The data set is described as follows: Antifungal activity against Cladosporium herbarum after 72 hrs by liquid growth inhibition assay. The note with it: read-out: MIC100. The class given is functional.
Data set [8] deals with Aspergillus niger. Briefly: Antifungal activity against Aspergillus niger after 72 hrs by liquid growth inhibition assay. It counts as functional. As to conditions: read-out: MIC100.
The subject of another data set is Serratia marcescens. Briefly: Antibacterial activity against Serratia marcescens ATCC 4112 after 18 hrs by liquid growth inhibition assay. As to conditions: ATCC 4112, 18 h, read-out: MIC100. It counts as functional.
The subject of data set [9] is Escherichia coli. The data set is described as follows: Antibacterial activity against Escherichia coli SBS 363 after 18 hrs by liquid growth inhibition assay. As to conditions: SBS 363, 18 h, read-out: MIC100. It counts as functional.
Data set [10] concerns Candida parapsilosis. The data set is described as follows: Antifungal activity against Candida parapsilosis IOC 4564 after 18 hrs by liquid growth inhibition assay. The class given is functional. As to conditions: Lodderomyces parapsilosis, IOC 4564, 18 h; read-out: MIC100.
The subject of another data set is Candida albicans. Briefly: Antifungal activity against Candida albicans MDM8 after 18 hrs by liquid growth inhibition assay. The class given is functional. The note with it: MDM8, 18 h, read-out: MIC100.
In a further data set the test system is Candida tropicalis. The data set is described as follows: Antifungal activity against Candida tropicalis IOC 4560 after 18 hrs by liquid growth inhibition assay. The note with it: IOC 4560, 18 h, read-out: MIC100. It counts as functional.
Data set [11] concerns Bacillus spizizenii. Briefly: Antibacterial activity against Bacillus subtilis ATCC 6633 measured every 4 hrs by broth micro-dilution method. It counts as functional. As to conditions: ATCC 6633, 4 h. (In general: In broth dilution the organism is exposed to a series of concentrations in liquid medium.)
Data set [12] deals with Escherichia coli. The data set is described as follows: Antibacterial activity against Escherichia coli ATCC 25922 measured every 4 hrs by broth micro-dilution method. The class given is functional. As to conditions: ATCC 25922, 4 h.
The subject of data set [13] is Staphylococcus aureus. The data set is described as follows: Antibacterial activity against Staphylococcus aureus ATCC 25923 measured every 4 hrs by broth micro-dilution method. It counts as functional. The note with it: ATCC 25923, 4 h.
Data set [14] relates to Pseudomonas aeruginosa. The data set is described as follows: Antibacterial activity against Pseudomonas aeruginosa ATCC 9027 measured every 4 hrs by broth micro-dilution method. The class given is functional. The note with it: ATCC 9027, 4 h.
The subject of data set [15] is Escherichia coli. Briefly: Antibacterial activity against Escherichia coli SBS 363 up to 50 umol/L after 18 hrs by liquid growth inhibition assay. The class given is functional.
Data set [16] concerns Cladosporium herbarum. Briefly: Antifungal activity against Cladosporium herbarum up to 50 umol/L after 72 hrs by liquid growth inhibition assay. It counts as functional.
Data set [17] deals with Aspergillus niger. The data set is described as follows: Antifungal activity against Aspergillus niger up to 50 umol/L after 72 hrs by liquid growth inhibition assay. The class given is functional.
Data set [18] relates to Enterobacter cloacae. The data set is described as follows: Antibacterial activity against Enterobacter cloacae beta-12 up to 50 umol/L after 18 hrs by liquid growth inhibition assay. The class given is functional.
The subject of data set [19] is Candida parapsilosis. Briefly: Antifungal activity against Candida parapsilosis IOC 4564 up to 50 umol/L after 18 hrs by liquid growth inhibition assay. The class given is functional.
For data set [20], the system named is Bacillus spizizenii. The data set is described as follows: Antibacterial activity against Bacillus subtilis ATCC 6633 up to 50 umol/L after 18 hrs by liquid growth inhibition assay. The class given is functional.

Activity calls are given as the source filed them. No cut-off for these calls is given here.

On to H-FLGALWEVAKSVF-NH2, for which the MIC in the data set on Enterobacter cloacae [1] was determined as 25 µM; with Staphylococcus aureus [2], 6.25 µM; in the data set with Micrococcus luteus, 1.56 µM; in [3], 6.25 µM; in the data set on Cryptococcus neoformans, 6.25 µM; in the data set with Escherichia coli [4], 12.5 µM. The MIC with Pseudomonas aeruginosa [5] is 0.78 µM; in the data set with Bacillus spizizenii [6], 12.5 µM; with Cladosporium herbarum [7] it was 25 µM; in the data set on Aspergillus niger [8], 25 µM; in the data set with Serratia marcescens, 1.56 µM; in the data set with Escherichia coli [9], 12.5 µM. Also, the figures for the MIC in the data set on Candida parapsilosis [10], in the data set on Candida albicans and in the data set with Candida tropicalis were 50 µM, 12.5 µM and 12.5 µM, respectively. The MHC in the data set with Erythrocyte was 1.6 µmol/L.

Regarding H-FLGALWKVAKSVF-NH2, the MIC in the data set on Enterobacter cloacae [1] is 6.25 µM; in the data set on Staphylococcus aureus [2] it was 1.56 µM; in the data set with Micrococcus luteus it was 1.56 µM; in data set [3] it was 1.56 µM; in the data set on Cryptococcus neoformans it was 1.56 µM; in the data set with Escherichia coli [4], 1.56 µM. For the same substance, the MIC in the data set with Pseudomonas aeruginosa [5] turned out to be 0.39 µM; with Bacillus spizizenii [6], 3.12 µM; with Cladosporium herbarum [7] it was 12.5 µM; in the data set with Aspergillus niger [8] it was 6.25 µM; in the data set with Serratia marcescens, 0.78 µM; in the data set on Escherichia coli [9], 1.56 µM. In addition, the MIC in the data set with Candida parapsilosis [10], in the data set with Candida albicans and in the data set on Candida tropicalis was 1.56 µM each time. In the data set on Erythrocyte, this substance yielded an MHC of 1.6 µmol/L.

For H-FLGALWNVAKKVF-NH2, the MIC was determined as 6.25 µM with Enterobacter cloacae [1]; 1.56 µM with Staphylococcus aureus [2]; 1.56 µM in the data set with Micrococcus luteus; 1.56 µM in data set [3]; 1.56 µM with Cryptococcus neoformans; 1.56 µM in the data set on Escherichia coli [4]. The MIC with Pseudomonas aeruginosa [5] was 0.39 µM; in the data set with Bacillus spizizenii [6], 6.25 µM; with Cladosporium herbarum [7], 6.25 µM; in the data set with Aspergillus niger [8] it was 6.25 µM; in the data set on Serratia marcescens, 0.78 µM; with Escherichia coli [9], 1.56 µM. The MIC was found to be 6.25 µM with Candida parapsilosis [10], 1.56 µM in the data set with Candida albicans and 3.12 µM in the data set on Candida tropicalis. Moreover, the MHC in the data set with Erythrocyte was found to be 1.6 µmol/L.

H-FLGALWNVAKSVF-NH2: the MIC in the data set with Enterobacter cloacae [1] came out at 25 µM; in the data set on Staphylococcus aureus [2], 3.12 µM; with Micrococcus luteus, 1.56 µM; with Bacillus spizizenii [11], 20 µM; in data set [3], 3.12 µM; in the data set on Cryptococcus neoformans it was 3.12 µM. Further, the MIC in the data set with Escherichia coli [4] is 3.12 µM; in the data set on Pseudomonas aeruginosa [5] it was 0.78 µM; with Bacillus spizizenii [6] it was 25 µM; against Escherichia coli [12], 25 µM; in the data set on Cladosporium herbarum [7] it was 50 µM; against Staphylococcus aureus [13] it was 10 µM. In addition, the MIC in the data set with Aspergillus niger [8] turned out to be 25 µM; in the data set on Serratia marcescens it was 1.56 µM; in the data set with Candida parapsilosis [10], 25 µM; against Pseudomonas aeruginosa [14], 10 µM; in the data set on Candida albicans, 12.5 µM; in the data set on Candida tropicalis it was 6.25 µM. Further, in the data set with Erythrocyte, the MHC was determined as 6.25 µmol/L.

With H-FLGALWNVWKSVF-NH2, the MIC turned out to be 6.25 µM in the data set with Enterobacter cloacae [1]; 1.56 µM in the data set with Staphylococcus aureus [2]; 1.56 µM in the data set with Micrococcus luteus; 3.12 µM in [3]; 3.12 µM in the data set with Cryptococcus neoformans; 1.56 µM in the data set with Escherichia coli [4]. The MIC in the data set on Pseudomonas aeruginosa [5] came out at 0.78 µM; with Bacillus spizizenii [6] it was 6.25 µM; in the data set on Cladosporium herbarum [7], 50 µM; with Aspergillus niger [8] it was 50 µM; in the data set with Serratia marcescens it was 1.56 µM; with Escherichia coli [9], 1.56 µM. In addition, the MIC is 50 µM in the data set with Candida parapsilosis [10], 1.56 µM in the data set with Candida albicans and 6.25 µM in the data set on Candida tropicalis. This substance yielded an MHC in the data set on Erythrocyte of 1.6 µmol/L.

Take H-FLGELWNVAKSVF-NH2: the MIC with Staphylococcus aureus [2] was found to be 50 µM; with Micrococcus luteus it was 25 µM; in data set [3], 50 µM; in the data set on Cryptococcus neoformans, 12.5 µM; with Escherichia coli [4], 50 µM; with Pseudomonas aeruginosa [5], 3.12 µM. Moreover, the values for the MIC in the data set with Serratia marcescens, in the data set with Candida albicans and in the data set with Candida tropicalis were 3.12 µM, 50 µM and 12.5 µM, respectively. In addition, the “growth inhibition (GI)” value in the data set with Escherichia coli [15], in the data set on Cladosporium herbarum [16], in the data set on Aspergillus niger [17], in the data set on Enterobacter cloacae [18], in the data set on Candida parapsilosis [19] and in the data set on Bacillus spizizenii [20] was “inactive” in each case. Further, in the data set on Erythrocyte, the MHC is 25 µmol/L.

Regarding H-FLGELWNVWKSVF-NH2, the MIC in the data set on Enterobacter cloacae [1] amounted to 50 µM; in the data set with Staphylococcus aureus [2], 12.5 µM; in the data set with Micrococcus luteus it was 3.12 µM; in data set [3], 6.25 µM; in the data set on Cryptococcus neoformans, 6.25 µM; in the data set on Escherichia coli [4], 6.25 µM. Further, the MIC amounted to 3.12 µM in the data set on Pseudomonas aeruginosa [5]; 12.5 µM in the data set on Bacillus spizizenii [6]; 3.12 µM in the data set with Serratia marcescens; 12.5 µM in the data set with Escherichia coli [9]; 6.25 µM with Candida albicans; 12.5 µM with Candida tropicalis. Also, the MHC with Erythrocyte amounted to 1.6 µmol/L. Further, the “growth inhibition (GI)” value in the data set with Cladosporium herbarum [16], in the data set with Aspergillus niger [17] and with Candida parapsilosis [19] was “inactive” throughout.

In the case of H-FLKALWNVAKSVF-NH2, the MIC with Enterobacter cloacae [1] was 6.25 µM; in the data set with Staphylococcus aureus [2], 3.12 µM; with Micrococcus luteus, 0.78 µM; in data set [3], 3.12 µM; in the data set on Cryptococcus neoformans, 3.12 µM; with Escherichia coli [4], 1.56 µM. The MIC worked out at 0.78 µM with Pseudomonas aeruginosa [5]; 6.25 µM in the data set with Bacillus spizizenii [6]; 25 µM in the data set on Cladosporium herbarum [7]; 12.5 µM with Aspergillus niger [8]; 1.56 µM in the data set on Serratia marcescens; 1.56 µM in the data set on Escherichia coli [9]. In addition, the results for the MIC with Candida parapsilosis [10], in the data set on Candida albicans and with Candida tropicalis were 6.25 µM, 3.12 µM and 3.12 µM, respectively. The same substance had an MHC with Erythrocyte of 1.6 µmol/L.
